Patent US11319298B2 (Merck Sharp & Dohme Corp., priority 2016, dated 2022)

target: T1, human M4 muscarinic acetylcholine receptor (Homo sapiens, UniProt P08173); test: human FLIPR-based M4 PAM assay, CHO-K1 cells stably transfected with human M4 receptor and chimeric G-protein Gαqi5; format: cell-based; conditions: inflection point (IP) of dose response curve; acetylcholine added at 20% of maximum response; CHO-K1 human M4/Gαqi5, FLIPR Tetra
T1 construct: expressed in transfected cells; host or cells: CHO-K1
T1 sequence (P08173 1-479): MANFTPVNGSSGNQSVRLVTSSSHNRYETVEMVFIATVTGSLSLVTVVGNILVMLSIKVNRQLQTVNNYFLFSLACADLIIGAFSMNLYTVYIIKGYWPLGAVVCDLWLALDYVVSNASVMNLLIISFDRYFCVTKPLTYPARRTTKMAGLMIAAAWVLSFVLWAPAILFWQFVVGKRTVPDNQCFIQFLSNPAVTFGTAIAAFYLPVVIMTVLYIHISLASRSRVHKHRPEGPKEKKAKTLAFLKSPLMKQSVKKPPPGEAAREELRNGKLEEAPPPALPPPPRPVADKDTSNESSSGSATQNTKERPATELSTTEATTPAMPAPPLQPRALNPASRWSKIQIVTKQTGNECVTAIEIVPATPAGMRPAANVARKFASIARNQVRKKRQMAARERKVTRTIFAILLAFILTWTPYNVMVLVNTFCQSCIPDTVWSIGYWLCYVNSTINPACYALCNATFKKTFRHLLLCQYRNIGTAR
Outline: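 The FLIPR read recorded 4 min after compound was added across a concentration range, then 3.5 min after acetylcholine giving 20% of its maximal response, with an occasional extra EC70 addition. Cells were dye-loaded for about 1 h at 37 °C. Potency is the curve inflection point from a four-parameter logistic fit.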

| SMILES | EC50 [nM] |
| --- | --- |
| Cc1c(Cl)nc(CO)nc1N1CCC(Oc2ccc3ncn(C)c(=O)c3c2)CC1 [Example 6, 6-((1-(6-chloro-2-(hydroxymethyl)-5-methylpyrimidin-4-yl)piperidin-4-yl)oxy)-3-methylquinazolin-4(3H)-one] | 976 |
| Cc1ncc(C)c(N2CC[C@H](Oc3cccc(C#N)c3)[C@H](F)C2)n1 [Example 81, 3-(((3R,4S)-1-(2,5-dimethylpyrimidin-4-yl)-3-fluoropiperidin-4-yl)oxy)benzonitrile] | 293 |
| COc1ccc(OC2CCN(c3nnc(C(=O)NCc4ccc5c(c4)OCO5)cc3C)CC2)cn1 [Example 166, N-(1,3-benzodioxol-5-ylmethyl)-6-{4-[(6-methoxypyridin-3-yl)oxy]piperidin-1-yl}-5-methylpyridazine-3-carboxamide] | 400 |
| COc1ccc(OC2CCN(c3ncc(C#N)c(Cl)c3C)CC2)cn1 [Example 34, 4-chloro-5-(4-((6-methoxypyridin-3-yl)oxy)piperidin-1-yl)-5-methylnicotinonitrile] | 217 |
| COc1ccc(OC2CCN(c3nnc(C(=O)NCc4ccc5c(c4)CCO5)cc3C)CC2)cn1 [Example 176, N-(2,3-dihydro-1-benzofuran-5-ylmethyl)-6-{4-[(6-methoxypyridin-3-yl)oxy]piperidin-1-yl}-5-methylpyridazine-3-carboxamide] | 629 |
| COc1ccc(OC2CCN(c3ncnc(N4CC5CC4CO5)c3C)CC2)cn1 (centres unmarked) [Example 238, 5-(6-(4-((6-methoxypyridin-3-yl)oxy)piperidin-1-yl)-5-methylpyrimidin-4-yl)-2-oxa-5-azabicyclo[2.2.1]heptane] | 3060 |
| Cc1cc(C(=O)NCc2ccncc2)nnc1N1CCC(OCC2CC2)CC1 [Example 152] | 259 |
| Cc1c(Cl)nc(CO)nc1N1CCC(Oc2ccc3[nH]ccc3c2)CC1 [Example 97, (4-(4-((1H-indol-5-yl)oxy)piperidin-1-yl)-6-chloro-5-methylpyrimidin-2-yl)methanol] | 68 |
| COc1ccc(OC2CCN(c3nc(C(=O)NC4CCc5ccccc5C4)nc(Cl)c3C)CC2)cn1 (centres unmarked) [Example 221, 4-chloro-6-(4-((6-methoxypyridin-3-yl)oxy)piperidin-1-yl)-5-methyl-N-(1,2,3,4-tetrahydronaphthalen-2-yl)pyrimidine-2-carboxamide] | 1830 |
| COc1ccc(OC2CCN(c3nc(C)ncc3C)CC2)cn1 [Example 79, 4-(4-((6-methoxypyridin-3-yl)oxy)piperidin-1-yl)-2,5-dimethylpyrimidine] | 235 |
| COc1ccc(OC2CCN(c3nnc(C(=O)NCc4ccncc4)cc3C)CC2)cn1 [Example 116, 6-{4-[(6-methoxypyridin-3-yl)oxy]piperidin-1-yl}-5-methyl-N-(pyridin-4-ylmethyl)pyridazine-3-carboxamide] | 79 |
| Cc1cc(C(=O)NCc2ccncc2)nnc1N1CCC(Oc2ccc3c(c2)C(=O)N(C)C3)CC1 [Example 135, 5-methyl-6-{4-[(2-methyl-3-oxo-2,3-dihydro-1H-isoindol-5-yl)oxy]piperidin-1-yl}-N-(pyridin-4-ylmethyl)pyridazine-3-carboxamide] | 158 |
| Cc1cc(C#N)nnc1N1CCC(Oc2cccc(C#N)c2)CC1 [Example 259, 6-(4-(3-cyanophenoxy)piperidin-1-yl)-5-methylpyridazine-3-carbonitrile] | 62 |
| COc1ccc(OC2CCN(c3nnc(C(=O)Nc4cccnc4)cc3C)CC2)cn1 [Example 137, 6-{4-[(6-methoxypyridin-3-yl)oxy]piperidin-1-yl}-5-methyl-N-pyridin-3-ylpyridazine-3-carboxamide] | 175 |
| Cc1cc(C(=O)NCc2ccncc2)nnc1N1CCC(Oc2cnn(CC3CC3)c2)CC1 [Example 39, 6-(4-((1-(cyclopropylmethyl)-1H-pyrazol-4-yl)oxy)piperidin-1-yl)-5-methyl-N-(pyridin-4-ylmethyl)pyridazine-3-carboxamide] | 278 |
| COc1ccc(OC2CCN(c3ncnc(-c4ccoc4)c3C)CC2)cn1 [Example 252, 4-(furan-3-yl)-6-(4-((6-methoxypyridin-3-yl)oxy)piperidin-1-yl)-5-methylpyrimidine] | 1710 |
| Cc1c(-c2ccc3c(c2)OCCO3)ncnc1N1CCC(Oc2cccc(C#N)c2)CC1 [Example 250, 3-((1-(6-(2,3-dihydrobenzo[b][1,4]dioxin-6-yl)-5-methylpyrimidin-4-yl)piperidin-4-yl)oxy)benzonitrile] | 1130 |
| COc1ccc(OC2CCN(c3nnc(C(=O)NC4CC4)cc3C)CC2)cn1 [Example 161, N-cyclopropyl-6-{4-[(6-methoxypyridin-3-yl)oxy]piperidin-1-yl}-5-methylpyridazine-3-carboxamide] | 302 |

| SMILES | EC50 [nM] |
| --- | --- |
| COc1ccc(OC2CCN(c3nc(C(=O)NCc4ccncc4Cl)nc(Cl)c3C)CC2)cn1 [Example 211, 4-chloro-N-((3-chloropyridin-4-yl)methyl)-6-(4-((6-methoxypyridin-3-yl)oxy)piperidin-1-yl)-5-methylpyrimidine-2-carboxamide] | 635 |
| Cc1c(Cl)nc(CO)nc1N1CCC(Oc2cccc(C#N)c2)C(F)(F)C1 (centres unmarked) [Example 23, 3-((1-(6-chloro-2-(hydroxymethyl)-5-methylpyrimidin-4-yl)-3,3-difluoropiperidin-4-yl)oxy)benzonitrile] | 75 |
| COc1ccc(OC2CCN(c3nc(C#N)c(C(N)=O)cc3C)CC2)cn1 [Example 112, 2-cyano-6-{4-[(6-methoxpyridin-3-yl)oxy]piperidin-1-yl}-5-methylpyridine-3-carboxamide] | 41 |
| Cc1c(-c2ccoc2)ncnc1N1CCC(Oc2cccc(C#N)c2)CC1 [Example 249, 3-((1-(6-(furan-3-yl)-5-methylpyrimidin-4-yl)piperidin-4-yl)oxy)benzonitrile] | 925 |
| Cc1nc(Cl)c(C)c(N2CCC(Oc3ccc4c(cnn4C)c3)CC2)n1 [Example 56, 5-((1-(6-chloro-2,5-dimethypyrimidin-4-yl)piperidin-4-yl)oxy)-1-methyl-1H-indazole] | 60 |
| Cc1cc(C(=O)NC2CCCc3ccccc32)nnc1N1CCC(Oc2cccc(C#N)c2)CC1 (centres unmarked) [Example 202, 6-[4-(3-cyanophenoxy)piperidin-1-yl]-5-methyl-N-(1,2,3,4-tetrahydronaphthalne-1-yl)pyridazine-3-carboxamide] | 473 |
| Cc1ccc(OC2CCN(c3nc(CO)nc(Cl)c3C)CC2)cc1Cl [Example 3, (4-chloro-6-(4-(3-chloro-4-methylphenoxy)piperidin-1-yl)-5-methylpyrimidin-2-yl)methanol] | 452 |
| Cc1cc(C(=O)N[C@@H]2CCc3cccnc3C2)nnc1N1CCC(Oc2cccc(C#N)c2)CC1 [Example 164B, (R)-6-[4-(3-cyanophenoxy)piperidin-1-yl]-5-methyl-N-(5,6,7,8-tetrahydroquinolin-7-yl)pyridazine-3-carboxamide] | 338 |
| CSc1ncc(C)c(N2CCC(Oc3cccnc3)CC2)n1 [Example 20, 5-methyl-2-(methylthio)-4-(4-(pyridin-3-yloxy)piperidin-1-yl)pyrimidine] | 3060 |
| Cc1c(Cl)nc(CO)nc1N1CCC(Oc2ccc3c(c2)NCCO3)CC1 [Example 27, (4-chloro-6-(4-((3,4-dihydro-2H-benzo[b][1,4]oxazin-6-yl)oxy)piperidin-1-yl)-5-methylpyrimidin-2-yl)methanol] | 112 |
| COc1ncc(OC2CCN(c3nc(CO)nc(Cl)c3C)CC2)cc1F [Example 54, (4-chloro-6-(4-((5-fluoro-6-methoxypyridin-3-yl)oxy)piperidin-1-yl)-5-methylpyrimidin-2-yl)methanol] | 55 |
| COc1ccc(OC2CCN(c3nnc(C#N)cc3C)CC2)cn1 [Example 258, 6-(4-((6-Methoxypyridin-3-yl)oxy)piperidin-1-yl)-5-methylpyridazine-3-carbonitrile] | 73 |
| C=Cc1ncnc(N2CCC(Oc3cccc(C#N)c3)CC2)c1C [Example 245, 3-((1-(5-methyl-6-vinylpyrimidin-4-yl)piperidin-4-yl)oxy)benzonitrile] | 484 |
| COc1ccc(OC2CCN(c3nnc(C(=O)NCc4cnn[nH]4)cc3C)CC2)cn1 [Example 118, 6-{4-[(6-methoxypyridin-3-yl)oxy]piperidin-1-yl}-5-methyl-N-(1H-1,2,3-triazol-5-ylmethyl)pyridazine-3-carboxamide] | 86 |
| COc1ccc([C@@H](C)NC(=O)c2cc(C)c(N3CCC(Oc4ccc(OC)nc4)CC3)nn2)cc1 [Example 188, N-[(1R)-1-(4-methoxyphenyl)ethyl]-6-{4-[(6-methoxypyridin-3-yl)oxy]piperidin-1-yl}-5-methylpyridazine-3-carboxamide] | 1510 |
| COc1ccc(OC2CCN(c3ncnc(Cl)c3C)CC2)cc1 [Example 57, 4-chloro-6-(4-(4-methoxyphenoxy)piperidin-1-yl)-5-methypyrimidine] | 61 |
| COc1ccc(OC2CCN(c3nnc(C(=O)N[C@@H]4CCc5ccccc54)cc3C)CC2)cn1 [Example 179, N-[(1R)-2,3-dihydro-1H-inden-1-yl]-6-{4-[(6-methoxypyridin-3-yl)oxy]piperidin-1-yl}-5-methylpyridazine-3-carboxamide] | 793 |
